Data published in patent US20250345492A1, “AN ANTIBACTERIAL POLYPEPTIDE COMPOUND, A MEDICAL DEVICE, HYDROGEL AND USE THEREOF” (priority 2020, published 2025).
Ends that are not written are not given here.

Columns and labels:
C. albicans ATCC14053 = conditions: fungus
Procedure, shortened: (§1)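 Log-phase cells grown in MH (bacteria) or SD (fungi) medium at 37 °C were plated at 1×10^5 CFU/ml with 2-fold serially diluted peptide (1-256 μM solutions added at twice final concentration). After 12 h at 37 °C, MIC was taken as the first clear well by eye, in triplicate.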

[1] = tested on: E-5b, clinical isolated drug-resistant strain ESBL; conditions: strain E-5b (ESBL)
Procedure, shortened: as §1

[2] = tested on: Staphylococcus aureus (ATCC 29213); conditions: standard strain
Procedure, shortened: as §1

[3] = tested on: P-1c, clinical isolated drug-resistant strain PA; conditions: strain P-1c (PA)
Procedure, shortened: as §1

C. parapsilosis ATCC2001 = conditions: fungus
Procedure, shortened: as §1

[4] = tested on: P-5c, clinical isolated drug-resistant strain PA; conditions: strain P-5c (PA)
Procedure, shortened: as §1

C. krusei ATCC6258 = conditions: fungus
Procedure, shortened: as §1

[5] = tested on: P-2c, clinical isolated drug-resistant strain PA; conditions: strain P-2c (PA)
Procedure, shortened: as §1

[6] = tested on: P-4c, clinical isolated drug-resistant strain PA; conditions: strain P-4c (PA)
Procedure, shortened: as §1

[7] = tested on: E-3b, clinical isolated drug-resistant strain ESBL; conditions: strain E-3b (ESBL)
Procedure, shortened: as §1

[8] = tested on: S-3a, clinical isolated drug-resistant strain MRSA; conditions: strain S-3a (MRSA)
Procedure, shortened: as §1

[9] = tested on: E-4b, clinical isolated drug-resistant strain ESBL; conditions: strain E-4b (ESBL)
Procedure, shortened: as §1

C. tropicalis ATCC750 = conditions: fungus
Procedure, shortened: as §1

[10] = tested on: S-1a, clinical isolated drug-resistant strain MRSA; conditions: strain S-1a (MRSA)
Procedure, shortened: as §1

[11] = tested on: Pseudomonas aeruginosa (ATCC 27853); conditions: standard strain
Procedure, shortened: as §1

[12] = tested on: E-1b, clinical isolated drug-resistant strain ESBL; conditions: strain E-1b (ESBL)
Procedure, shortened: as §1

[13] = tested on: Staphylococcus epidermidis (ATCC 12228); conditions: standard strain
Procedure, shortened: as §1

[14] = tested on: S-4a, clinical isolated drug-resistant strain MRSA; conditions: strain S-4a (MRSA)
Procedure, shortened: as §1

C. glabrata ATCC22019 = conditions: fungus
Procedure, shortened: as §1

[15] = tested on: S-2a, clinical isolated drug-resistant strain MRSA; conditions: strain S-2a (MRSA)
Procedure, shortened: as §1

E. coli (ATCC 25922) [16] = conditions: standard strain
Procedure, shortened: as §1

[17] = tested on: Cronobacter sakazakii (ATCC 29544); conditions: standard strain
Procedure, shortened: as §1

[18] = tested on: P-3c, clinical isolated drug-resistant strain PA; conditions: strain P-3c (PA)
Procedure, shortened: as §1

[19] = tested on: Bacillus subtilis (ATCC 23857); conditions: standard strain
Procedure, shortened: as §1

[20] = tested on: E-2b, clinical isolated drug-resistant strain ESBL; conditions: strain E-2b (ESBL)
Procedure, shortened: as §1

E. coli (ATCC 25922) [21] = assay: Outer membrane permeability, NPN probe; assay type: cell-based; conditions: 1×MIC to 8×MIC, NPN fluorescence, 15 min
Description: The destruction of bacterial cell OM was determined by using hydrophobic fluorescent probe NPN (1-N-phenylnaphthylamine) to determine the effect of the compounds on the OM permeability of E. coli (ATCC 25922).
Taking compounds 2, 8, 9, 13 and 15 of the present invention as examples, the OM permeability of E. coli with the presence of the antibacterial polypeptide compounds was analyzed. E. coli cells were washed twice with PBS solution and resuspended in 5 mM HEPES (pH 7.2), and then diluted to a concentration of […]. […] The excitation wavelength and emission wavelength were set to 350 nm and 420 nm, separately, and the cells were detected once every minute using a multifunctional ELISA reader within a 15-min period of time.

Row | Substance | MIC C. albicans ATCC14053 (C. albicans ATCC14053) [µM] | MIC [1] [µM] | MIC S. aureus ATCC29213 [2] [µM] | MIC [3] [µM] | MIC C. parapsilosis ATCC2001 (C. parapsilosis ATCC2001) [µM] | MIC [4] [µM] | MIC C. krusei ATCC6258 (C. krusei ATCC6258) [µM] | MIC [5] [µM] | MIC [6] [µM] | MIC [7] [µM] | MIC [8] [µM] | MIC [9] [µM] | MIC C. tropicalis ATCC750 (C. tropicalis ATCC750) [µM] | MIC [10] [µM] | MIC P. aerugmosa ATCC27853 [11] [µM] | MIC [12] [µM] | MIC S. epidermidis ATCC12228 [13] [µM] | MIC [14] [µM] | MIC C. glabrata ATCC22019 (C. glabrata ATCC22019) [µM] | MIC [15] [µM] | other results
1 | Pro-Phe-Lys-Leu-Ser-Leu-His-Leu-NH2 (PFKLSLHL-NH2) [Compound J-1, reference compound] | 64 | 32 | 128 | 32 | 32 | 32 | 32 | 32 | 32 | 32 | 128 | 32 | 16 | 128 | 32 | 32 | 64 | 128 | 64 | 128 | MIC C. coli ATCC25922 (E. coli (ATCC 25922) [16]): 32 µM; MIC C. sakazakii ATCC29544 [17]: 64 µM; MIC [18]: 32 µM; MIC B. subtilis ATCC23857 [19]: 32 µM; MIC [20]: 32 µM; OM permeability of E. coli (E. coli (ATCC 25922) [21]): destroy the integrity of the E. coli OM in a dose-dependent manner
2 | Pro-Trp-Orn-Leu-Orn-Leu-His-Leu-NH2 (PWXLXLHL; HELM PEPTIDE1{P.W.[Orn].L.[Orn].L.H.L.[am]}$$$$V2.0; N-terminus assumed; SMILES CC(C)C[C@H](NC(=O)[C@H](Cc1c[nH]cn1)NC(=O)[C@H](CC(C)C)NC(=O)[C@H](CCCN)NC(=O)[C@H](CC(C)C)NC(=O)[C@H](CCCN)NC(=O)[C@H](Cc1c[nH]c2ccccc12)NC(=O)[C@@H]1CCCN1)C(N)=O) [Compound 9] | 32 | 8 | 64 | 8 | 16 | 8 | 64 | 8 | 8 | 8 | 64 | 8 | 16 | 64 | 8 | 8 | 32 | 64 | 16 | 64 | MIC C. coli ATCC25922 (E. coli (ATCC 25922) [16]): 8 µM; MIC C. sakazakii ATCC29544 [17]: 16 µM; MIC [18]: 8 µM; MIC B. subtilis ATCC23857 [19]: 16 µM; MIC [20]: 8 µM; OM permeability of E. coli (E. coli (ATCC 25922) [21]): destroy the integrity of the E. coli OM in a dose-dependent manner
